# Patent US8058068B2, “Peptide-enhanced transfections” (Life Technologies Corporation, priority 1995, dated 2011)
# Ends that are not written are not given here. Sp‑5‑CO = N-terminal spermine conjugate
# Legend:
# NIH/3T3 cells = assay type: cell-based; details: peak activity
# Protocol: Two versions of the Tat peptide were synthesized: one with the DNA-binding group carboxyspermine on the N-terminus and one without. The core TAT sequence employed was […] [SEQ ID NO:123]. The ability of the TAT peptide and the carboxyspermine-modified TAT peptide to enhance cationic lipid-mediated transfection was tested.
# Transfection was performed in NIH/3T3 cells, in 24-well plates. Seeding density was 6×10^4 cells/well. For each condition, the standard PLUS protocol was used (see example 3) for complexing. All complexes were prepared in OptiMEM reduced serum media. Cells were harvested and assayed for β-galactosidase acivity in the soluble extracts by luminescent assay (see example 8). […] A clear enhancement is seen.
# Jurkat cells = assay type: cell-based, human
# K562 cells = assay type: cell-based, human
# COS-7 cells = test: Dendrimer-mediated and Lipofectamine transfection +/- peptides, luciferase assay; assay type: cell-based; details: K16NLS (peak 2) 1, Sp-NLSNLS 1.5, NLS 20 μg/well
# Human fibroblasts [1] = test: Receptor-ligand proteins with Sp-NLSNLS in DNA pre-complexes, lipid transfection, β-galactosidase assay
# Protocol: (§1) In separate experiments, CHO-K1 cells were seeded at 6×10^4 cells/well, and human fibroblasts were seeded at 8×10^4 cells/well in 24-well plates in DMEM supplemented with 10% fetal bovine serum and allowed to grow overnight.
# CHO-K1 cells [2] = test: as above; details: DNA precomplexed with Sp-NLSNLS and the ligand protein(s)
# Protocol: as §1
# Human fibroblasts [3] = assay type: cell-based
# CHO-K1 cells [4] = test: Transfection by polycationic lipid reagents other than DOSPA-DOPE +/- Sp-NLSNLS, b-galactosidase assay; assay type: cell-based; details: 24 h
# NIH3T3 cells = test: as above; assay type: cell-based; details: 24 h
# Human fibroblasts [5] = test: as above; assay type: cell-based; details: 24 h
# [6] = Transfection Agent Arg DMER 3 μg/well, chloroquine
# [7] = Transfection Agent G7 (EDA) 3 μg/well, chloroquine
# [8] = Transfection Agent G9 (EDA) 3 μg/well, chloroquine
# [9] = Transfection Agent Lipofectamine 1 μL/well
# [10] = Transfection Agent Lys DMER 3 μg/well, chloroquine
# [11] = Transfection Agent “COMB BURST” 3 μg/well, chloroquine
# [12] = “LIPOFECTIN”, DNA precomplexed with Sp-NLSNLS and the ligand protein(s)
# [13] = polycationic lipid with DNA alone
Substance,Enhancement-Fold (DMRIE-C transfections at peak activity) (Jurkat cells) [Fold],Enhancement-Fold (DMRIE-C transfections at peak activity) (K562 cells) [Fold],RLU (luciferase) (COS-7 cells; [6]) [RLU],RLU (luciferase) (COS-7 cells; [7]) [RLU],RLU (luciferase) (COS-7 cells; [8]) [RLU],RLU (luciferase) (COS-7 cells; [9]) [RLU],RLU (luciferase) (COS-7 cells; [10]) [RLU],RLU (luciferase) (COS-7 cells; [11]) [RLU],other results
CGYGRKKRRQRRRG [TAT],–,–,–,–,–,–,–,–,ng b-Gal per cm2 (NIH/3T3 cells): 0.1 ng b-Gal per cm2; ng b-Gal per ug Protein (NIH/3T3 cells): 0.00 ng b-Gal per ug Protein
"GLFEAIAEFIEGGWEGLIEG [E5, hemagglutinin peptide, modification of FluHa]",1.2,3,–,–,–,–,–,–,–
"GYGPKKKRKVGG [NLS, nuclear localization signal of SV40 large T antigen]",–,–,84209,2749,1747,224029,17689,29639,–
Insulin: receptor-ligand protein,–,–,–,–,–,–,–,–,"Peak activity (ng β-gal/cm^2) (Human fibroblasts [1]; DMRIE-DOPE, DNA precomplexed with Sp-NLSNLS and the ligand protein): 20.7 ng β-gal/cm^2; Peak activity (ng β-gal/cm^2) (Human fibroblasts [1]; [12]): 22.7 ng β-gal/cm^2; Peak activity (ng β-gal/cm^2) (CHO-K1 cells [2]; […]): 452 ng β-gal/cm^2; Peak activity (ng β-gal/cm^2) (CHO-K1 cells [2]; “LIPOFECTIN”): 31 ng β-gal/cm^2"
K16CGYGPKKKRKVGGGGRGDSP (KKKKKKKKKKKKKKKKGGCGYGPKKKRKVGGKFTIVF) [K16NLSRGD],1,1,–,–,–,–,–,–,–
K16GGCGYGPKKKRKVGG [K16NLS (peak 2)],1,1,63307,3423,2297,164105,20847,28562,–
"Sp-5-CO-GGYGPKKKRKVGGGGYGPKKKRKVGG ({Sp‑5‑CO}-GGYGPKKKRKVGGGGYGPKKKRKVGG) [Sp-NLSNLS, the peptide NLSNLS conjugated to spermine]",–,–,56548,2832,1702,200447,17203,23503,Enhancement levels (β-galactosidase activity) (Human fibroblasts [3]): 5-8 fold
Transferrin: receptor-ligand protein,–,–,–,–,–,–,–,–,"Peak activity (ng β-gal/cm^2) (Human fibroblasts [1]; […], DNA precomplexed with Sp-NLSNLS and the ligand protein(s)): 24.5 ng β-gal/cm^2; Peak activity (ng β-gal/cm^2) (Human fibroblasts [1]; [12]): 30.6 ng β-gal/cm^2; Peak activity (ng β-gal/cm^2) (CHO-K1 cells [2]; […]): 433 ng β-gal/cm^2; Peak activity (ng β-gal/cm^2) (CHO-K1 cells [2]; “LIPOFECTIN”): 44 ng β-gal/cm^2"
sp-TAT: Tat peptide CGYGRKKRRQRRRG with the DNA-binding group carboxyspermine on the N-terminus (carboxyspermine-CGYGRKKRRQRRRG),–,–,–,–,–,–,–,–,ng b-Gal per cm2 (NIH/3T3 cells): 0.06 ng b-Gal per cm2; ng b-Gal per ug Protein (NIH/3T3 cells): 0.00 ng b-Gal per ug Protein
tetramethyldioleyl spermine [TMDOS],–,–,–,–,–,–,–,–,"Peak activity, Lipid + SpNLSNLS (CHO-K1 cells [4]; DNA precomplexed to Sp-NLSNLS): 2.9 ng b-gal/cm^2; Peak activity, Lipid alone (CHO-K1 cells [4]; [13]): 1.4 ng b-gal/cm^2; Peak activity, Lipid + SpNLSNLS (NIH3T3 cells; DNA precomplexed to Sp-NLSNLS): 1.3 ng b-gal/cm^2; Peak activity, Lipid alone (NIH3T3 cells; [13]): 0.2 ng b-gal/cm^2; Peak activity, Lipid + SpNLSNLS (Human fibroblasts [5]; DNA precomplexed to Sp-NLSNLS): 0.1 ng b-gal/cm^2; Peak activity, Lipid alone (Human fibroblasts [5]; [13]): 0.01 ng b-gal/cm^2"
